Consider 13 molecules from ChEMBL document CHEMBL4428076 (J Med Chem, 2016).

For orientation: Emax means the size of the effect at its maximum, as opposed to the concentration needed. In general, ED50 refers to the midpoint of the dose-response relation. Broadly, the pIC50 is the negative decadic logarithm of the IC50, by convention in mol/L. By pKi is commonly meant −log10 of the Ki, conventionally taken in molar units. As a reminder, the pEC50 is −log10 of the EC50, conventionally taken in molar units.

pEC50, pIC50, pKi: −log10 of the molar value. The source made the active and inactive calls. The rule behind the calls is not given here.

Data set [1] addresses Mu-type opioid receptor (Mus musculus) (UniProt P42866). Kind of data set: Agonist activity at mouse mu opioid receptor-1 expressed in CHO cell membranes assessed as [35S]GTPgammaS binding incubated for 60 mins by scintillation spectroscopic analysis relative to DAMGO. The class given is functional. Background: GTPγS is a poorly hydrolysed GTP analogue; its binding reports G protein activation.

The target of data set [2] is T1, Mu-type opioid receptor (Homo sapiens, UniProt P35372). The data set can be described thus: Activation of mu opioid receptor-1 (unknown origin) expressed in CHO cells assessed as beta-arrestin-2 recruitment at 10 uM after 90 mins by beta-galactosidase complementation assay. It is filed as cell-based. The conditions noted are these: 1.5 h. (In general: Recruitment of arrestin is a read-out of receptor activation apart from second messengers.)

Data set [3] concerns Mus musculus. Kind of data set: Antinociceptive activity in sc dosed CD-1 mouse assessed as increase in reaction time measured 15 mins post dose by radiant heat tail flick assay. The conditions noted are these: CD-1, sc, 0.25 h. The class given is functional. A general note: Hot-plate and tail-flick tests time the reaction to a heat stimulus.
For data set [4], the system named is Mus musculus. Kind of data set: Antinociceptive activity in CD-1 mouse assessed as increase in reaction time at 10 ug, icv administered on day 6 after DOR1-exon3 antisense oligodeoxynucleotide injection on day 1, 3 and 5 by radiant heat tail flick assay. The class given is functional, organism-based.
The target of data set [5] is T2, Delta-type opioid receptor (Mus musculus, UniProt P32300). Kind of data set: Antagonist activity at mouse delta opioid receptor-1 expressed in CHO cell membranes assessed as inhibition of DPDPE-induced [35S]GTPgammaS binding incubated for 60 mins by scintillation spectroscopic analysis. The class given is functional.
The target of data set [6] is T3, Mu-type opioid receptor (Mus musculus, UniProt P42866). The data set can be described thus: Displacement of [125I]-IBNtxA from mouse mu opioid receptor-1 expressed in CHO cell membranes incubated for 90 mins.
Data set [7] addresses T4, Kappa-type opioid receptor (Mus musculus, UniProt P33534). The data set can be described thus: Displacement of [125I]-IBNtxA from mouse kappa opioid receptor-1 expressed in CHO cell membranes incubated for 90 mins.
Data set [8] deals with T2, Delta-type opioid receptor. The data set can be described thus: Displacement of [125I]-IBNtxA from mouse delta opioid receptor-1 expressed in CHO cell membranes incubated for 90 mins.
In data set [9] the target is T3, Mu-type opioid receptor. Kind of data set: Agonist activity at mouse mu opioid receptor-1 expressed in CHO cell membranes assessed as [35S]GTPgammaS binding incubated for 60 mins by scintillation spectroscopic analysis. The class given is functional.
Data set [10] has as its target T4, Kappa-type opioid receptor. The data set can be described thus: Antagonist activity at mouse kappa opioid receptor-1 expressed in CHO cell membranes assessed as inhibition of U50,488H-induced [35S]GTPgammaS binding incubated for 60 mins by scintillation spectroscopic analysis. It is filed as functional.
The test system of data set [11] is Mus musculus. The data set can be described thus: Antinociceptive activity in CD-1 mouse assessed as increase in reaction time at 0.75 ug, icv administered on day 6 after MOR1-exon1 antisense oligodeoxynucleotide injection on day 1, 3 and 5 by radiant heat tail flick assay. It is filed as functional, organism-based.
Data set [12] deals with Mus musculus. The data set can be described thus: Antinociceptive activity in sc dosed CD-1 mouse assessed as increase in reaction time administered twice daily at dosing intervals of 12 hrs for 5 days by radiant heat tail flick assay. The conditions noted are these: CD-1, sc. The class given is functional.
Data set [13] is filed under the species Mus musculus. The data set can be described thus: animal or person. As to conditions: CD-1, sc, 0.5 h.
Description: Antinociceptive activity in sc dosed CD-1 mouse assessed as increase in reaction time measured 30 mins post dose by radiant heat tail flick assay
Data set [14] is filed under the species Mus musculus. Kind of data set: animal or person. As to conditions: CD-1, sc, 0.5 h. This is another data set of the same source.
Description: Antinociceptive activity in sc dosed CD-1 mouse assessed as increase in latency latency to respond with hind paw lick or shake/flutter measured 30 mins post dose by hot plate test
Data set [15] has as its target T2, Delta-type opioid receptor. The data set can be described thus: Agonist activity at mouse delta opioid receptor-1 expressed in CHO cell membranes assessed as [35S]GTPgammaS binding incubated for 60 mins by scintillation spectroscopic analysis. The class given is functional.
The target of data set [16] is Delta-type opioid receptor (Mus musculus) (UniProt P32300). The data set can be described thus: Agonist activity at mouse delta opioid receptor-1 expressed in CHO cell membranes assessed as [35S]GTPgammaS binding incubated for 60 mins by scintillation spectroscopic analysis relative to DPDPE. The class given is functional.
For data set [17], the target named is T1, Mu-type opioid receptor. The data set can be described thus: Inhibition of DAMGO-induced beta-arrestin-2 recruitment at mu opioid receptor-1 (unknown origin) expressed in CHO cells preincubated for 30 mins followed by DAMGO addition measured after 90 mins by beta-galactosidase complementation assay. The class given is cell-based.

T1 sequence (P35372 whole entry): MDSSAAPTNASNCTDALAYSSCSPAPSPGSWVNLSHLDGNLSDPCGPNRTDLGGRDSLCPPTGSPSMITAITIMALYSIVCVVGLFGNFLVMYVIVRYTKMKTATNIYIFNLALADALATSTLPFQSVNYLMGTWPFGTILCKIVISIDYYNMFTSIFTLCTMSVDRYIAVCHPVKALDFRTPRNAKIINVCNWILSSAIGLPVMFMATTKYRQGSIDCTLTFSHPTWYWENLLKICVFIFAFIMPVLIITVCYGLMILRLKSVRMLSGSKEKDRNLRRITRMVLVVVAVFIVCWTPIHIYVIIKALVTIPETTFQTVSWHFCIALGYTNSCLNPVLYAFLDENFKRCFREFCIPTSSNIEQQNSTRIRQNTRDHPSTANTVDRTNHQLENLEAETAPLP
T3 sequence (P42866 whole entry): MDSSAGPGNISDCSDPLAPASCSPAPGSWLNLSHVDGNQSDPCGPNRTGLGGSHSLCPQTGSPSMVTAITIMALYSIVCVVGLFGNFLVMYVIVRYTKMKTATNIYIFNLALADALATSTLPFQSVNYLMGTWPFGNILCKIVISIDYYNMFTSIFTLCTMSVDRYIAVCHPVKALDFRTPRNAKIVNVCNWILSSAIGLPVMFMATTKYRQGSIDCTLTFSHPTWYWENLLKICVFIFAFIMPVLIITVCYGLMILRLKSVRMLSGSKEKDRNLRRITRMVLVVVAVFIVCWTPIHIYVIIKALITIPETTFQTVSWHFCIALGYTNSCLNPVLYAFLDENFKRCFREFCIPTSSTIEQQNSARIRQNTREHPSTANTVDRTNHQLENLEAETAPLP
Mu-type opioid receptor (Mus musculus), sequence (P42866 whole entry): as above
T4 sequence (P33534 whole entry): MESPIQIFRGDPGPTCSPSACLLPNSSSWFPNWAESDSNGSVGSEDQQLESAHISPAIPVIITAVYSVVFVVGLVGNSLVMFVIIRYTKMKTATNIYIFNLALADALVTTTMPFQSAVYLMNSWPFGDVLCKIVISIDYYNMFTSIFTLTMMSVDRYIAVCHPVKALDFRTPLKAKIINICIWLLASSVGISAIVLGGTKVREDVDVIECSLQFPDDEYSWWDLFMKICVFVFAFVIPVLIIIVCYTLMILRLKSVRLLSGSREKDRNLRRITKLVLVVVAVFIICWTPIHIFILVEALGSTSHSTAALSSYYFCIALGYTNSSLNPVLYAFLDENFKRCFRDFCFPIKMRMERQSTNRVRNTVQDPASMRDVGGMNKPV
T2 sequence (P32300 whole entry): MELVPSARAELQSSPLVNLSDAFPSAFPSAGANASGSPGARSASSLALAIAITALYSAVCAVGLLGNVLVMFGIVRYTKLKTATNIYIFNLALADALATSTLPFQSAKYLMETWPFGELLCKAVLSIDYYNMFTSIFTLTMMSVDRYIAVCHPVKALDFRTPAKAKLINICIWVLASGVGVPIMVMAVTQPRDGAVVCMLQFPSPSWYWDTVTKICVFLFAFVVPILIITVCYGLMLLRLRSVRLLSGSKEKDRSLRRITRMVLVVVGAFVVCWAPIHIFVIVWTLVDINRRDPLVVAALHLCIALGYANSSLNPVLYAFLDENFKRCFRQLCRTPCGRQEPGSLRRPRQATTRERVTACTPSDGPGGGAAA
Delta-type opioid receptor (Mus musculus), sequence (P32300 whole entry): as above

For `CC[C@@H]1CN2CCc3c([nH]c4cccc(OC)c34)[C@@H]2C[C@@H]1/C(=C\OC)C(=O)OC`, the Emax in data set [1] was determined as 65%. On Mu-type opioid receptor [2], the Activity result is on record as “Not Active”. In the data set with Mus musculus [3], the ED50 was found to be 166 mg/kg.

In the case of `CC1(C)SSC(C)(C)[C@@H](NC(=O)[C@@H](N)Cc2ccc(O)cc2)C(=O)NCC(=O)N[C@@H](Cc2ccccc2)C(=O)N[C@H]1C(=O)O`, in the data set on Mus musculus [4], the outcome was inactive.

Consider `CC[C@@H]1CN2CC[C@]3(Nc4ccccc4C3=O)[C@@H]2C[C@@H]1/C(=C\OC)C(=O)OC`, for which the pIC50 was 6.71 in data set [5] and 6.60 in [10]. The pKi at Mu-type opioid receptor [6] is 9.34; in data set [7], 7.72; in data set [8], 8.54. The pEC50 at Mu-type opioid receptor [9] was 8.85. For the same molecule, the Emax in [1] turned out to be 116%. Besides, on Mu-type opioid receptor [2], the Activity entry is “Not Active”. Moreover, in the data set on Mus musculus [3], the 50% effective dose (ED50) came out at 0.24 mg/kg.

In the case of `C[C@@H](NC(=O)[C@@H](N)Cc1ccc(O)cc1)C(=O)NCC(=O)N(C)[C@@H](Cc1ccccc1)C(=O)NCCO` [DAMGO], the outcome at Mu-type opioid receptor [2] was Active.

As to `CC[C@@H]1CN2CC[C@@]3(C(=O)c4c(OC)cccc4N3Cc3ccccc3)[C@@H]2C[C@@H]1/C(=C\OC)C(=O)OC`, the values for the pKi (on Mu-type opioid receptor [6]; in data set [7]; in data set [8]) were 6.60, 6.87 and 6.59, respectively.

`CN1CC[C@]23c4c5ccc(O)c4O[C@H]2[C@@H](O)C=C[C@H]3[C@H]1C5` [MORPHINE]: the result in the data set on Mus musculus [11] was inactive. Also, the ED50 is 12.1 mg/kg in the data set on Mus musculus [12], 2 to 2.5 mg/kg in the data set filed under Mus musculus [13] and 1.7 mg/kg in the data set filed under Mus musculus [14].

Regarding `CC[C@@H]1CN2CC[C@]3(Nc4cccc(C#N)c4C3=O)[C@@H]2C[C@@H]1/C(=C\OC)C(=O)OC`, the figures for the pIC50 in [5] and in data set [10] were 7.14 and 6.14, respectively. For the same molecule, the figures for the negative logarithm of the Ki (pKi) (on Mu-type opioid receptor [6]; in [7]; in data set [8]) were 9.30, 7.33 and 8.62, respectively. Also, on Mu-type opioid receptor [9], the pEC50 is 9.15. In addition, the Emax in data set [1] stood at 122%. For the same molecule, the Activity entry at Mu-type opioid receptor [2] is “Not Active”. Moreover, the ED50 in the data set with Mus musculus [3] amounted to 0.32 mg/kg.

In the case of `CC[C@@H]1CN2CC[C@]3(Nc4cccc(-c5ccccc5)c4C3=O)[C@@H]2C[C@@H]1/C(=C\OC)C(=O)OC`, the pKi on Mu-type opioid receptor [6] was 9.04; in data set [7], 7.29; in data set [8], 9.10. Besides, the pEC50 is 8.85 at Mu-type opioid receptor [9] and 9.08 in [15]. In addition, the figures for the Emax in data set [1] and in [16] were 123% and 89%, respectively. Also, the pIC50 in data set [10] was 6.77. Further, the Activity entry on Mu-type opioid receptor [2] is given as “Not Active”. The ED50 with Mus musculus [3] was found to be 1 mg/kg.

Molecule `CC[C@@H]1CN2CC[C@@]3(O)C(=Nc4cccc(OC)c43)[C@@H]2C[C@@H]1/C(=C\OC)C(=O)OC` had a pKi at Mu-type opioid receptor [6] of 7.43. Also, on Mu-type opioid receptor [9], the pEC50 is 7.28. In addition, the Emax in data set [1] came to 77%. In addition, the pIC50 in data set [10] is 5.60. Moreover, the Activity entry on Mu-type opioid receptor [2] is listed as “Not Active”. Also, the inhibition entry at Mu-type opioid receptor [17] is “Dose-dependent effect”. Besides, the ED50 in the data set with Mus musculus [3] is 0.46 mg/kg.

As to `CC[C@@H]1CN2CC[C@@]3(C(=O)c4c(OC)cccc4N3C)[C@@H]2C[C@@H]1/C(=C\OC)C(=O)OC`, the pKi was 6.43 at Mu-type opioid receptor [6], less than 6.00 in data set [7] and less than 6.00 in [8].

For `CC[C@@H]1CN2CC[C@]3(Nc4cccc(O)c4C3=O)[C@@H]2C[C@@H]1/C(=C\OC)C(=O)OC`, the pIC50 in data set [5] was 6.53. Moreover, the pKi at Mu-type opioid receptor [6] is 8.85; in data set [7], 6.77; in data set [8] it was 8.21. The pEC50 on Mu-type opioid receptor [9] was 8.70. In data set [1], the Emax is 124%. The Activity entry at Mu-type opioid receptor [2] is “Not Active”. Further, in the data set on Mus musculus [3], the ED50 came out at 0.18 mg/kg.

`CC[C@@H]1CN2CC[C@]3(Nc4cccc(OC(C)=O)c4C3=O)[C@@H]2C[C@@H]1/C(=C\OC)C(=O)OC`: the pKi was 8.60 on Mu-type opioid receptor [6], 7.51 in data set [7] and 7.70 in data set [8]. Also, the pEC50 on Mu-type opioid receptor [9] is 8.41. In addition, the Emax in data set [1] was 120%. For the same molecule, in the data set on Mus musculus [3], the ED50 turned out to be 0.38 mg/kg.

Regarding `CC[C@@H]1CN2CC[C@]3(Nc4cccc(-c5ccoc5)c4C3=O)[C@@H]2C[C@@H]1/C(=C\OC)C(=O)OC`, the results for the pIC50 in [5] and in data set [10] were 7.41 and 6.69, respectively. Further, the pKi on Mu-type opioid receptor [6] was 9.03; in [7] it was 7.41; in data set [8] it was 8.82. The negative-log EC50 (pEC50) on Mu-type opioid receptor [9] was 8.82. For the same molecule, the Emax in data set [1] was 100%. Also, at Mu-type opioid receptor [2], the Activity result is “Not Active”. The ED50 in the data set on Mus musculus [3] stood at 1.1 mg/kg.
